Results: the NIST ThermoML archive (doi:10.1016/j.jct.2015.07.012)
± gives the expanded uncertainty stated by the source.

What was measured:
[1] = refractive index (Na D-line) (dimensionless); conditions: 303.15 K; 101.33 kPa; Liquid; Standard Abbe refractometry
[2] = 101.33 kPa, Liquid; for speed of sound: Sing-around technique in a fixed-path interferometer; for mass density: Vibrating tube method
[3] = wn = mass fraction of the nth substance listed; conditions: 298.15 K, 100 kPa, Liquid; for speed of sound: Frequency=3 MHz, Sing-around technique in a fixed-path interferometer; for mass density: Vibrating tube method

CCCCCCC(=O)[O-].C[NH2+]C1CCCCC1 [N-methylcyclohexylammonium heptanoate]
refractive index [1]: 1.4636 ± 0.0012
speed of sound ([2]; 293.15 K): 1478.3 ± 8.6 m/s
mass density ([2]; 293.15 K): 945.8 ± 1.9 kg/m3
speed of sound ([2]; 298.15 K): 1458.5 ± 8.6 m/s
mass density ([2]; 298.15 K): 942.18 ± 1.8 kg/m3
speed of sound ([2]; 303.15 K): 1440.2 ± 8.6 m/s
mass density ([2]; 303.15 K): 938.51 ± 1.8 kg/m3
speed of sound ([2]; 308.15 K): 1422.2 ± 8.6 m/s
mass density ([2]; 308.15 K): 934.81 ± 1.8 kg/m3
speed of sound ([2]; 313.15 K): 1404.5 ± 8.6 m/s
mass density ([2]; 313.15 K): 931.05 ± 1.8 kg/m3
speed of sound ([2]; 318.15 K): 1385.1 ± 8.6 m/s
mass density ([2]; 318.15 K): 927.26 ± 1.8 kg/m3
speed of sound ([2]; 323.15 K): 1368.6 ± 8.6 m/s
mass density ([2]; 323.15 K): 923.44 ± 1.8 kg/m3
speed of sound ([2]; 328.15 K): 1351.4 ± 8.6 m/s
mass density ([2]; 328.15 K): 919.59 ± 1.8 kg/m3
speed of sound ([2]; 333.15 K): 1334.1 ± 8.6 m/s
mass density ([2]; 333.15 K): 915.71 ± 1.8 kg/m3
speed of sound ([2]; 338.15 K): 1316.1 ± 8.6 m/s
mass density ([2]; 338.15 K): 911.8 ± 1.8 kg/m3
speed of sound ([2]; 343.15 K): 1299.1 ± 8.6 m/s
mass density ([2]; 343.15 K): 907.85 ± 1.8 kg/m3

CCCCCC(=O)[O-].C[NH2+]C1CCCCC1 [N-methylcyclohexylammonium hexanoate]
refractive index [1]: 1.4631 ± 0.0012
speed of sound ([2]; 293.15 K): 1484 ± 8.6 m/s
mass density ([2]; 293.15 K): 955.14 ± 1.9 kg/m3
speed of sound ([2]; 298.15 K): 1464.9 ± 8.6 m/s
mass density ([2]; 298.15 K): 951.65 ± 1.9 kg/m3
speed of sound ([2]; 303.15 K): 1446.4 ± 8.6 m/s
mass density ([2]; 303.15 K): 948.13 ± 1.9 kg/m3
speed of sound ([2]; 308.15 K): 1428.2 ± 8.6 m/s
mass density ([2]; 308.15 K): 944.56 ± 1.9 kg/m3
speed of sound ([2]; 313.15 K): 1410.3 ± 8.6 m/s
mass density ([2]; 313.15 K): 940.96 ± 1.8 kg/m3
speed of sound ([2]; 318.15 K): 1392.6 ± 8.6 m/s
mass density ([2]; 318.15 K): 937.32 ± 1.8 kg/m3
speed of sound ([2]; 323.15 K): 1375 ± 8.6 m/s
mass density ([2]; 323.15 K): 933.66 ± 1.8 kg/m3
speed of sound ([2]; 328.15 K): 1357.5 ± 8.6 m/s
mass density ([2]; 328.15 K): 929.96 ± 1.8 kg/m3
speed of sound ([2]; 333.15 K): 1340 ± 8.6 m/s
mass density ([2]; 333.15 K): 926.23 ± 1.8 kg/m3
speed of sound ([2]; 338.15 K): 1322.6 ± 8.6 m/s
mass density ([2]; 338.15 K): 922.46 ± 1.8 kg/m3
speed of sound ([2]; 343.15 K): 1305.2 ± 8.6 m/s
mass density ([2]; 343.15 K): 918.66 ± 1.8 kg/m3

CCCCCCCC(=O)[O-].C[NH2+]C1CCCCC1 [N-methylcyclohexylammonium octanoate]
refractive index [1]: 1.464 ± 0.0012
speed of sound ([2]; 293.15 K): 1471.6 ± 8.6 m/s
mass density ([2]; 293.15 K): 938.59 ± 1.8 kg/m3
speed of sound ([2]; 298.15 K): 1453.1 ± 8.6 m/s
mass density ([2]; 298.15 K): 935.17 ± 1.8 kg/m3
speed of sound ([2]; 303.15 K): 1435 ± 8.6 m/s
mass density ([2]; 303.15 K): 931.73 ± 1.8 kg/m3
speed of sound ([2]; 308.15 K): 1417.2 ± 8.6 m/s
mass density ([2]; 308.15 K): 928.25 ± 1.8 kg/m3
speed of sound ([2]; 313.15 K): 1399.5 ± 8.6 m/s
mass density ([2]; 313.15 K): 924.74 ± 1.8 kg/m3
speed of sound ([2]; 318.15 K): 1381 ± 8.6 m/s
mass density ([2]; 318.15 K): 921.21 ± 1.8 kg/m3
speed of sound ([2]; 323.15 K): 1363.7 ± 8.6 m/s
mass density ([2]; 323.15 K): 917.65 ± 1.8 kg/m3
speed of sound ([2]; 328.15 K): 1346.5 ± 8.6 m/s
mass density ([2]; 328.15 K): 914.07 ± 1.8 kg/m3
speed of sound ([2]; 333.15 K): 1329.4 ± 8.6 m/s
mass density ([2]; 333.15 K): 910.46 ± 1.8 kg/m3
speed of sound ([2]; 338.15 K): 1312.4 ± 8.6 m/s
mass density ([2]; 338.15 K): 906.82 ± 1.8 kg/m3
speed of sound ([2]; 343.15 K): 1295.4 ± 8.6 m/s
mass density ([2]; 343.15 K): 903.15 ± 1.8 kg/m3

CCCCCCCC(=O)[O-].C[NH2+]C1CCCCC1 [N-methylcyclohexylammonium octanoate] + O
speed of sound ([3]; w2 = 0.002193): 1453.1 ± 8.6 m/s
speed of sound ([3]; w2 = 0.004032): 1457.6 ± 8.6 m/s
speed of sound ([3]; w2 = 0.005228): 1459.7 ± 8.6 m/s
speed of sound ([3]; w2 = 0.007628): 1462.3 ± 8.6 m/s
speed of sound ([3]; w2 = 0.009495): 1463.2 ± 8.6 m/s
mass density ([3]; w2 = 0.002193): 935.17 ± 1.8 kg/m3
mass density ([3]; w2 = 0.004032): 935.76 ± 1.8 kg/m3
mass density ([3]; w2 = 0.005228): 936.14 ± 1.8 kg/m3
mass density ([3]; w2 = 0.007628): 937.01 ± 1.8 kg/m3
mass density ([3]; w2 = 0.009495): 937.53 ± 1.8 kg/m3

CCCCC(=O)[O-].C[NH2+]C1CCCCC1 [N-methylcyclohexylammonium pentanoate]
refractive index [1]: 1.4627 ± 0.0012
speed of sound ([2]; 293.15 K): 1495.3 ± 8.6 m/s
mass density ([2]; 293.15 K): 965.76 ± 1.9 kg/m3
speed of sound ([2]; 298.15 K): 1475.7 ± 8.6 m/s
mass density ([2]; 298.15 K): 962.21 ± 1.9 kg/m3
speed of sound ([2]; 303.15 K): 1456.7 ± 8.6 m/s
mass density ([2]; 303.15 K): 958.63 ± 1.9 kg/m3
speed of sound ([2]; 308.15 K): 1438.2 ± 8.6 m/s
mass density ([2]; 308.15 K): 955.01 ± 1.9 kg/m3
speed of sound ([2]; 313.15 K): 1420.1 ± 8.6 m/s
mass density ([2]; 313.15 K): 951.34 ± 1.9 kg/m3
speed of sound ([2]; 318.15 K): 1402.1 ± 8.6 m/s
mass density ([2]; 318.15 K): 947.63 ± 1.9 kg/m3
speed of sound ([2]; 323.15 K): 1384.2 ± 8.6 m/s
mass density ([2]; 323.15 K): 943.88 ± 1.9 kg/m3
speed of sound ([2]; 328.15 K): 1366.5 ± 8.6 m/s
mass density ([2]; 328.15 K): 940.1 ± 1.8 kg/m3
speed of sound ([2]; 333.15 K): 1348.8 ± 8.6 m/s
mass density ([2]; 333.15 K): 936.29 ± 1.8 kg/m3
speed of sound ([2]; 338.15 K): 1331.1 ± 8.6 m/s
mass density ([2]; 338.15 K): 932.44 ± 1.8 kg/m3
speed of sound ([2]; 343.15 K): 1313.5 ± 8.6 m/s
mass density ([2]; 343.15 K): 928.54 ± 1.8 kg/m3
